According to paper PMC9925730, “Controlled sequential in situ self-assembly and disassembly of a fluorogenic cisplatin prodrug for cancer theranostics” (Nature Communications, 2023):
Values joined by “and” are separate entries in the source; they are usually repeats but may differ in a detail not shown here. Identical values can stand only once.

How the values were obtained:
[1] = Urine and faeces analysis by ICP-OES (Pt element); assay type: in vivo, mice; set-up: Pt in urine / Pt in feces: unit not given beside the values
Protocol: page 47: determined using ELISA kits according to manufacturer 's protocol. Determination of the blood circulation half-life. […], or CDDP (at a dose of 2.25 mg kg-1 Pt) was i.v. injected into healthy female BALB/c nude mice (6-8 weeks old). […] The collected blood was digested with concentrated HNO3 (65-70%, 2 mL) and HCl (36~38%, 1 mL) at 90 °C overnight. The residues were then diluted with 5 mL 2% HNO3 and 5% HCl solution, and the concentrations of Pt element were determined by ICP-OES, which were further applied to calculate the contents of Pt element in the blood. The plot of the percentage of Pt element remained in the blood versus injection time to yield the pharmacokinetic time. Urine and Faeces analysis. […] Urine and faeces were collected at 2 (for 0-2 h), 4 (for 2-4 h), 8 (for 4- 8 h) and 12 h (for […]), which were diluted in methanol and centrifuged at 3,600 × g for 10 min, followed by filtering via a 0.22 μm syringe filter. The solutions were analyzed by HPLC (660 nm detection) to characterize all the mCy-containing compounds. Using the established standard curves for […] Cy-COOH, the amount of each compound in the urine and faeces could be calculated, which were further applied to determine the percentage of them in the urine and faeces. The data were summarized in Supplementary Tables 5-8. […] Urine and faeces were collected and weighed. The urine and faeces were digested with concentrated HNO3 (65~70%) and HCl (36~38%) at 90 °C for 24 h. The solution was diluted to 5 mL 2% HNO3 and 5% HCl solution, and the concentration of Pt element was measured by ICP-OES, which was further applied to calculate the percentage of Pt in corresponding urine and faeces. The data were summarized in Supplementary Tables 9 and 10. 47

[2] = General design summary of signals and cytotoxicity (Fig. 1a)
Description: P-CyPt is designed to (1) offer activatable near-infrared (NIR) FL and PA signals for bimodality imaging through ALP-mediated in situ self-assembly and (2) release CDDP for on-demand therapy via GSH-triggered disassembly (Fig. 1a). […] After systemic administration, P-CyPt as a small molecule can extravasate and penetrate deeply into tumor tissues (Fig. 1b). In tumor tissues that are membrane-bound ALP positive, rapid dephosphorylation of P-CyPt by the membrane-bound ALP generates CyPt, switching on NIR FL (λem = 710 nm) and PA signals (λ = 700 nm); moreover, CyPt with increased hydrophobicity is susceptible to self-assembly into Pt(IV) nanoparticles (Pt^IVNPs), which turns on another PA signal (λ = 750 nm) resulting from the aggregation-caused bathochromic shift. The on-site formed Pt^IVNPs can anchor on the cell membranes, which attenuate diffusion, prolong retention, and enhance translocation into cells[32],[33]. Within tumor cells, the abundant endogenous GSH can reduce Pt(IV) into Pt(II), producing negatively charged Cy-COOH that promotes NPs disassembly and accelerates release of CDDP intracellularly. This process dramatically raises intracellular CDDP’s concentration while depletes GSH’s level to effectively kill tumor cells. Moreover, the disassembly of Pt^IVNPs into Cy-COOH further increases NIR FL (called as “ON-ON”) as the aggregation-caused quenching (ACQ) effect is eliminated; however, the PA signal at 750 nm is turned off but the PA signal at 700 nm is kept at “ON” state. The sequential switches in NIR FL and PA bimodal imaging signals can allow P-CyPt to reliably monitor the ALP-triggered in situ self-assembly and GSH-driven disassembly process in vivo, facilitating to guide precise chemotherapy of tumors.

[3] = Urine and faeces analysis by ICP-OES (Pt element); assay type: in vivo, mice; set-up: Pt in urine / Pt in feces: unit not given beside the values; remark: listed apart in the source
[4] = i.v. 2.25 mg kg-1 Pt, 0-2 h, ICP-OES

Structure (SMILES): [NH2][Pt]([NH2])([Cl])[Cl] [CDDP, cisplatin]
- Percentage of Pt element excreted to the faeces ([1]; 2-4 h): 2.60 ± 0.45%
- Percentage of Pt element excreted to the urine ([1]; 2-4 h): 10.94 ± 1.14%
- Percentage of Pt element excreted to the faeces ([1]; 4-8 h): 4.55 ± 0.60%
- Percentage of Pt element excreted to the urine ([1]; 4-8 h): 5.45 ± 0.94%
- Percentage of Pt element excreted to the urine ([1]; 8-12 h): 3.48 ± 0.58%
- Pt in urine ([1]; Fig.6g, 0-2 h, mean of 3 mice): 15.456
- Pt in urine ([1]; Fig.6g, 0-2 h, single mice): 14.877 and 18.189 and 13.302
- Pt in urine ([1]; Fig.6g, 2-4 h, mean of 3 mice): 10.936
- Pt in urine ([1]; Fig.6g, 2-4 h, single mice): 10.576 and 12.209 and 10.023
- Pt in urine ([1]; Fig.6g, 4-8 h, mean of 3 mice): 5.452
- Pt in urine ([1]; Fig.6g, 4-8 h, single mice): 5.332 and 6.452 and 4.572
- Pt in urine ([1]; Fig.6g, 8-12 h, mean of 3 mice): 3.482
- Pt in feces ([1]; Fig.6h, 0-2 h, mean of 3 mice): 0.193
- Pt in feces ([1]; Fig.6h, 0-2 h, single mice): 0.190 and 0.242 and 0.148
- Pt in feces ([1]; Fig.6h, 2-4 h, mean of 3 mice): 2.596
- Pt in feces ([1]; Fig.6h, 2-4 h, single mice): 2.468 and 3.099 and 2.222
- Pt in feces ([1]; Fig.6h, 4-8 h, mean of 3 mice): 4.548
- Pt in feces ([1]; Fig.6h, 4-8 h, single mice): 4.452 and 5.187 and 4.005
- Pt in feces ([1]; Fig.6h, 8-12 h, mean of 3 mice): 2.704
- Pt accumulatively cleared (urine + faeces) ([1]; during 12 h): ~ 45.3%
- Pt in feces ([1]; feces collected 0-2 h, mouse-1): 0.190
- Pt in feces ([1]; feces collected 0-2 h, mouse-2): 0.242
- Pt in feces ([1]; feces collected 0-2 h, mouse-3): 0.148
- Pt in feces ([1]; feces collected 2-4 h, mouse-1): 2.468
- Pt in feces ([1]; feces collected 2-4 h, mouse-2): 3.099
- Pt in feces ([1]; feces collected 2-4 h, mouse-3): 2.222
- Pt in feces ([1]; feces collected 4-8 h, mouse-1): 4.452
- Pt in feces ([1]; feces collected 4-8 h, mouse-2): 5.187
- Pt in feces ([1]; feces collected 4-8 h, mouse-3): 4.005
- Pt in feces ([1]; feces collected 8-12 h, mouse-1): 2.646
- Pt in feces ([1]; feces collected 8-12 h, mouse-3): 2.294
- Percentage of Pt element excreted to the faeces [1, 4]: 0.19 ± 0.046%
- Percentage of Pt element excreted to the urine [1, 4]: 15.46 ± 2.49%
- Pt in urine, mean ([1]; urine collected 0-2 h, mean of 3 mice): 15.456
- Pt in urine ([1]; urine collected 0-2 h, mouse-1): 14.877
- Pt in urine ([1]; urine collected 0-2 h, mouse-2): 18.189
- Pt in urine ([1]; urine collected 0-2 h, mouse-3): 13.302
- Pt in urine, mean ([1]; urine collected 2-4 h, mean of 3 mice): 10.936
- Pt in urine ([1]; urine collected 2-4 h, mouse-1): 10.576
- Pt in urine ([1]; urine collected 2-4 h, mouse-2): 12.209
- Pt in urine ([1]; urine collected 2-4 h, mouse-3): 10.023
- Pt in urine, mean ([1]; urine collected 4-8 h, mean of 3 mice): 5.452
- Pt in urine ([1]; urine collected 4-8 h, mouse-1): 5.332
- Pt in urine ([1]; urine collected 4-8 h, mouse-2): 6.452
- Pt in urine ([1]; urine collected 4-8 h, mouse-3): 4.572
- Pt in urine, mean ([1]; urine collected 8-12 h, mean of 3 mice): 3.482
- Pt in urine ([1]; urine collected 8-12 h, mouse-1): 3.482
- Pt in urine ([1]; urine collected 8-12 h, mouse-2): 4.062
- Pt in urine ([1]; urine collected 8-12 h, mouse-3): 2.903
- Cytotoxicity [2]: High
- Percentage of Pt element excreted to the faeces ([3]; 8-12 h): 2.70 ± 0.44%
- Pt in urine ([3]; Fig.6g, 8-12 h, single mice): 3.482 and 4.062 and 2.903
- Pt in feces ([3]; Fig.6h, 8-12 h, single mice): 2.646 and 3.172 and 2.294
- Pt in feces ([3]; feces collected 8-12 h, mouse-2): 3.172
